tested on: MIA-PACA2 pancreatic cancer cell lines; assay: Cell proliferation assay (CellTiter 96 AQueous One); type: cell-based; conditions: Homo sapiens, MIA PaCa-2; MIA-PACA2, same assay as the % inhibition (standard conditions)
Experimental: Cell lines: Tumor-derived pancreatic cancer cell lines MIA-PACA2 were purchased from ATCC and grown in complete DMEM-High Glucose medium supplemented with penicillin (100 U/mL), streptomycin (100 μg/mL), and 10% heat-inactivated FBS at 37° C. in a humidified incubator with 5% CO2.
Method: Cells are plated at 1000 cells/well density in 96-wells plate, starved ON, and the next day tested small molecules are added to the cells in the final concentration of 30 μM with 0.3% DMSO 3 hours prior to 10% FBS addition. After serum addition cells are incubated for 6 days at 37° C. in a humidified incubator with 5% CO2. For IC50 value determination, serial dilutions of compounds were added to cells under the same conditions.
Assay: At the end of the incubation period, cell cultures are tested using the CellTiter 96® AQueous One Solution Cell Proliferation Assay kit (Promega Corporation, Madison, Wis.) according to the manufacturer specifications. Briefly, assay is performed by adding 20 μl of the CellTiter 96 Aqueous One Solution Reagent directly to culture wells, followed by for 1-4 hours incubation at 37° C. in a humidified incubator with 5% CO2. At the end of incubation time, absorbance at 492 nm is recorded with the 96-well plate reader Eppendorf AF2200, and degree of small molecule-dependent proliferation inhibition is calculated from raw data assuming No Serum cells value as 100%.

IC50 [nM]	SMILES
> 1000	O=c1nc(-c2ccccn2)[nH]c2ccsc12 [drawing 1494]
> 1000	COCC(C)Nc1nc(-c2ccccn2)nc2sc(C)c(-c3ccccc3)c12 (centres unmarked) [drawing 1510]

same assay, conditions: Homo sapiens, MIA PaCa-2; at 30 μM, MIA-PACA2

SMILES	inhibition at 30 µM [%]
CS(=O)(=O)N1CCCc2cc(C(=O)Nc3nnc(-c4ccccn4)[nH]3)ccc21 [drawing 1469]	76 to 100
O=C(Nc1nnc(-c2ccccn2)[nH]1)c1ccc(=O)[nH]n1 [drawing 1470]	25 to 50
COc1ccc(COCC(=O)Nc2nnc(-c3ccccn3)[nH]2)cc1 [drawing 1471]	1 to 25
COc1ccc(OCc2nc(CNCCc3nnc4n3CCC4)cs2)cc1 [drawing 1472]	76 to 100
O=C(Nc1nc(-c2ccccn2)cs1)C1COc2ccccc2O1 (centres unmarked) [drawing 1473]	76 to 100
O=C(Nc1nc(-c2ccccn2)cs1)c1cccc(F)c1 [drawing 1474]	76 to 100
Cc1cc(C(=O)Nc2nc(-c3ccccn3)cs2)no1 [drawing 1475]	76 to 100
O=C(Cn1c(=O)cnc2ccccc21)Nc1nc(-c2ccccn2)cs1 [drawing 1476]	76 to 100
O=C(Nc1nc(-c2ccccn2)cs1)c1ccc2nccnc2c1 [drawing 1477]	76 to 100
O=C(Nc1nc(-c2ccccn2)cs1)c1ccc2[nH]cnc2c1 [drawing 1478]	76 to 100
CS(=O)(=O)Cc1ccc(C(=O)Nc2nc(-c3ccccn3)cs2)cc1 [drawing 1479]	76 to 100
O=C(Nc1nc(-c2ccccn2)cs1)c1ccccn1 [drawing 1480]	76 to 100
O=C(Cn1cnc2ccccc2c1=O)Nc1nc(-c2ccccn2)cs1 [drawing 1481]	76 to 100
O=C(Nc1nc(-c2ccccn2)cs1)C1CC(=O)N(c2ccc3c(c2)OCCO3)C1 (centres unmarked) [drawing 1482]	76 to 100
O=C(Nc1nc(-c2ccccn2)cs1)c1cccnc1 [drawing 1483]	76 to 100
O=C(Cc1cccc(F)c1)Nc1nc(-c2ccccn2)cs1 [drawing 1484]	76 to 100
O=C(Nc1nc(-c2ccccn2)cs1)c1ccncc1 [drawing 1485]	76 to 100
O=C(Nc1nc(-c2ccccn2)cs1)c1ccc(F)cc1 [drawing 1486]	76 to 100
COc1cccc(C(=O)Nc2nc(-c3ccccn3)cs2)c1 [drawing 1487]	76 to 100
COc1ccc(C(=O)Nc2nc(-c3ccccn3)cs2)cn1 [drawing 1488]	76 to 100
COc1ccc(-c2csc3[nH]c(-c4ccccn4)nc(=O)c23)cc1 [drawing 1489]	76 to 100
O=c1nc(-c2ccccn2)[nH]c2scc(-c3cccs3)c12 [drawing 1490]	76 to 100
CNC(=O)c1sc2[nH]c(-c3ccccn3)nc(=O)c2c1C [drawing 1491]	51 to 75
O=c1nc(-c2ccccn2)[nH]c2scc(-c3ccccc3Cl)c12 [drawing 1492]	76 to 100
Cc1sc2[nH]c(-c3ccccn3)nc(=O)c2c1-c1ccccc1 [drawing 1493]	76 to 100
O=c1nc(-c2ccccn2)[nH]c2ccsc12 [drawing 1494]	1 to 25

SMILES	inhibition at 30 µM [%]
O=c1nc(-c2ccccn2)[nH]c2sc(-c3ccccc3)cc12 [drawing 1495]	76 to 100
CCN(CC)C(=O)c1sc2[nH]c(-c3ccccn3)nc(=O)c2c1C [drawing 1496]	76 to 100
Cc1c(C(=O)N(C)C)sc2[nH]c(-c3ccccn3)nc(=O)c12 [drawing 1497]	51 to 75
O=c1nc(-c2ccccn2)[nH]c2c1CCC2 [drawing 1498]	1 to 25
O=c1nc(-c2ccccn2)[nH]c2c1sc1ccccc12 [drawing 1499]	76 to 100
Cc1cc2c(=O)nc(-c3cc(OCC(F)F)ccn3)[nH]c2s1 [drawing 1500]	76 to 100
COc1ccc(NC(=O)CCc2c(C)nc(-c3ccccn3)nc2O)cn1 [drawing 1501]	76 to 100
Cc1nc(-c2ccccn2)nc(O)c1CCC(=O)NCCc1cccs1 [drawing 1502]	76 to 100
Cc1nc(-c2ccccn2)nc(O)c1CCC(=O)Nc1cc(F)ccc1F [drawing 1503]	76 to 100
Cc1nc(-c2ccccn2)nc(O)c1CCC(=O)NC1CCc2ccccc21 (centres unmarked) [drawing 1504]	76 to 100
Cc1nc(-c2ccccn2)nc(O)c1CCC(=O)Nc1ccc(C(C)C)cc1 [drawing 1505]	76 to 100
COC(=O)c1cc(NC(=O)CCc2c(C)nc(-c3ccccn3)nc2O)ccc1Cl [drawing 1506]	76 to 100
Cc1nc(-c2ccccn2)nc(O)c1CCC(=O)Nc1cccc(OCC(=O)N2CCCC2)c1 [drawing 1507]	1 to 25
CCN(CC)S(=O)(=O)c1cc(C)c(C)c(NC(=O)CCc2c(C)nc(-c3ccccn3)nc2O)c1 [drawing 1508]	76 to 100
OCCNc1nc(-c2ccccn2)nc2scc(-c3ccccc3)c12 [drawing 1509]	76 to 100
COCC(C)Nc1nc(-c2ccccn2)nc2sc(C)c(-c3ccccc3)c12 (centres unmarked) [drawing 1510]	76 to 100
CCc1cc(NNC(=O)c2ccc(C#N)cc2)nc(-c2ccccn2)n1 [drawing 1511]	76 to 100
COCCCn1ccc(Nc2cc(C)nc(-c3ccccn3)n2)n1 [drawing 1512]	25 to 50
CC(O)CNc1nc(-c2ccccn2)nc2scc(-c3ccccc3)c12 (centres unmarked) [drawing 1513]	76 to 100
NC(=O)C1(CNc2nc(-c3ccccn3)nc3c2CCC3)CCCC1 [drawing 1514]	76 to 100
OCCOCCNc1nc(-c2ccccn2)nc2scc(-c3ccccc3)c12 [drawing 1515]	76 to 100
Cc1sc2nc(-c3ccccn3)nc(NCCCO)c2c1-c1ccccc1 [drawing 1516]	76 to 100
COC(=O)c1cccc(CN2CCC(CSc3ccccc3)C2)c1C#N (centres unmarked) [drawing 1517]	76 to 100
COC(=O)c1cc(NCc2nc(CC(C)C)no2)ccc1Cl [drawing 1518]	76 to 100
Cc1cccc(CN(Cc2ccccn2)Cc2nccn2C)c1 [drawing 1519]	76 to 100
Cc1ccc(CN(Cc2ccco2)C(=O)c2oc3ccccc3c2C)cc1 [drawing 1520]	1 to 25

SMILES	inhibition at 30 µM [%]
Cc1ccc(O)c(CN(C)Cc2nccn2Cc2ccccc2)n1 [drawing 1521]	76 to 100
CCCCSc1nc(-c2cccs2)c(C(=O)C(F)(F)F)cc1C#N [drawing 1523]	76 to 100
CCC(C)(C)c1ccc(OCCCC(=O)NC(C(=O)OC)C(C)C)c(C(C)(C)CC)c1 (centres unmarked) [drawing 1524]	76 to 100
Oc1ccc(C2(c3cccc(Cl)c3)CCCC2)cc1 [drawing 1525]	76 to 100
Cc1ccc(-c2ccc(Oc3ccc(C(F)(F)F)cn3)c(C)c2)cc1 [drawing 1526]	76 to 100
CCOc1cc(C(=O)Oc2c(C)ccc(C)c2C)cc(OCC)c1OCC [drawing 1527]	76 to 100
COC(=O)c1ccc(C(=O)NCC2(c3ccccc3OC)CCCC2)nc1 [drawing 1528]	76 to 100
CCOc1cc(S(=O)(=O)N(Cc2ccccc2)Cc2ccccc2)c(OCC)cc1C [drawing 1529]	76 to 100
COc1ccc(CN(CC[S+]([O-])c2cc(Cl)ccc2Cl)C2CC2)cc1 (centres unmarked) [drawing 1530]	51 to 75
CCCOc1ccc2ccccc2c1CN(C)S(=O)(=O)N1CC(C)OC(C)C1 (centres unmarked) [drawing 1531]	76 to 100
O=S(=O)(Oc1cc(C(F)(F)F)cc(C(F)(F)F)c1)N1CCc2ccccc2C1 [drawing 1532]	25 to 50
COC(=O)C(C)CN(Cc1cc(Br)ccc1[N+](=O)[O-])C1CC1 (centres unmarked) [drawing 1534]	1 to 25
CC(C1CC1)N(CC(F)(F)F)C(=O)Cc1ccc(-c2ccccc2)cc1 (centres unmarked) [drawing 1535]	76 to 100
COC(=O)C(C)CN(Cc1ccccc1)c1nc(C(F)(F)F)ccc1C#N (centres unmarked) [drawing 1536]	51 to 75
N#CC1(c2ccc(C(=O)N3CCCC3CO)cc2)CC1 (centres unmarked) [drawing 1537]	51 to 75
CCN(CC)S(=O)(=O)c1ccc(NCCOC)c(C(=O)NCCSCc2ccc(C)cc2)c1 [drawing 1538]	76 to 100
CSc1nc(C2CC2)cc(C(=O)NCCc2ccc(S(=O)(=O)NC(=O)c3cc(C4CC4)nc(SC)c3C#N)cc2)c1C#N [drawing 1539]	1 to 25
CC(C)C1=C(O)C2(CC2c2ccc(-c3ccccc3)cc2)C(C)CC1 (centres unmarked) [drawing 1540]	76 to 100
Cc1cccc(C)c1OCCOC(=O)c1ccccc1SCCOc1c(C)cccc1C [drawing 1541]	51 to 75
Oc1nc(-c2ccccn2)nc2c1CCCN2 [drawing 1542]	1 to 25
O=C(COc1ccccc1)N1CCCc2c(O)nc(-c3ccccn3)nc21 [drawing 1543]	76 to 100
COc1ccc(COCC(=O)N2CCCc3c(O)nc(-c4ccccn4)nc32)cc1 [drawing 1544]	76 to 100
COc1ccc(CCC(=O)N2CCCc3c(O)nc(-c4ccccn4)nc32)cc1 [drawing 1545]	76 to 100
O=C(c1ccn(-c2ccccc2)n1)N1CCCc2c(O)nc(-c3ccccn3)nc21 [drawing 1546]	76 to 100
CS(=O)(=O)N1CCCc2cc(C(=O)N3CCCc4c(O)nc(-c5ccccn5)nc43)ccc21 [drawing 1547]	76 to 100
O=C(c1ccc(=O)[nH]n1)N1CCCc2c(O)nc(-c3ccccn3)nc21 [drawing 1548]	76 to 100
